Here are results for 17 compounds from publication PMC7144330, “2-Thiopyrimidine/chalcone hybrids: design, synthesis, ADMET prediction, and anticancer evaluation as STAT3/STAT5a inhibitors” (Journal of Enzyme Inhibition and Medicinal Chemistry, 2020).

Data set [1] has as its system K-562. As to the kind of experiment: MTT cytotoxic assay, leukaemia K-562 cell line. Type of data set: cell-based. As for the experimental part:
(§1) To investigate cytotoxic activity of the final target compounds 9a–r, MTT assay was performed. Three different cell lines were used, leukaemia (K-562), breast (MCF-7) and colon (HT-29) cell lines. Cisplatin and erlotinib were the reference drugs used in this study.
(§2) All target compounds 9a–r were screened against three different cancer cell lines, leukaemia (K-562), breast (MCF-7), and colon (HT-29). MTT assay was used. Both cisplatin and erlotinib were used as the reference drugs. Cytotoxicity results are recorded in Table 1.

Data set [2] deals with MCF-7. As to the kind of experiment: MTT cytotoxic assay, breast MCF-7 cell line. Type of data set: cell-based, human. As for the experimental part:
as §1, §2

In data set [3] the test system is HT-29. The data set is described as follows: MTT cytotoxic assay, colon HT-29 cell line. Type of data set: cell-based. The conditions noted are these: read-out: (IC50 μM)±SD HT-29. On the procedure: as §1, §2
For data set [4], the target named is T1, STAT3 (Homo sapiens, UniProt P40763).
T1 construct: endogenous in cells; host or cells: K-562 and MCF-7 cells (nuclear extracts)
T1 sequence (P40763 whole entry): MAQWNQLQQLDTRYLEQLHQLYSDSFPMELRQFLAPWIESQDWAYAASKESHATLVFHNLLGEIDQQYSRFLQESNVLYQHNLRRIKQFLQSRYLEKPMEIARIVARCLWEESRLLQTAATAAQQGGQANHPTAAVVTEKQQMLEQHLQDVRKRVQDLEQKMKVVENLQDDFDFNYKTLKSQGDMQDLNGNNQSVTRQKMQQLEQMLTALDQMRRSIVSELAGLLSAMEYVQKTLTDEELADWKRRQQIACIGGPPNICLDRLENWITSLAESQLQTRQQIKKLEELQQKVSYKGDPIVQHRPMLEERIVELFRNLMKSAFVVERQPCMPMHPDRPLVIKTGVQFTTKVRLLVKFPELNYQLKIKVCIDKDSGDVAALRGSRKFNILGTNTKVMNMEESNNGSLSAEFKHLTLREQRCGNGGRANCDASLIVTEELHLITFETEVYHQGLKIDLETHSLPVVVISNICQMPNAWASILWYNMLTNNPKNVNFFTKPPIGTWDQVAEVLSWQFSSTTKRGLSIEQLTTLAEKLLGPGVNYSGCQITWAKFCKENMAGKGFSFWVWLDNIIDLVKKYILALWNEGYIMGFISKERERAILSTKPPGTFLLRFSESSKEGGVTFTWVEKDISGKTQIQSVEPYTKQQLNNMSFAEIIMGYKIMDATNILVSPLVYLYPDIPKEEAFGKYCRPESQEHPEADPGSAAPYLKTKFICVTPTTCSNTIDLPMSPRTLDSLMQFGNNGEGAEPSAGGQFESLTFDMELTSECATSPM
As to the kind of experiment: TransAM STAT3 activation assay on nuclear extracts of treated cells. It is filed as cell-based. As to conditions: 24 h, read-out: Inhibition IC50 (µM) STAT3. On the procedure: (§3) Both K-562 and MCF-7 cell lines were seeded overnight in plates, then 10 µM of test compounds (9a and 9r for MCF-7 cells; 9d, 9f, and 9n for K-562 cells) or reference drug pacritinib was added for 24 h. A nuclear extract kit was used to extract nuclear fractions from treated cells using the manufacture’s procedure. STAT3 and STAT5a activations were analysed using the collected nuclear extracts (20 µg) through TransAM STAT3 and STAT5a activation assay guided by the manufacture’s protocol. The obtained results were expressed in the form of mean ± SD. Each experiment was done in triplicate.
(§4) Pacritinib, an inhibitor for both STAT3 and STAT5a[49] was used in this study as a reference drug.

Data set [5] addresses T2, STAT5a (Homo sapiens, UniProt P42229).
T2 construct: endogenous in cells; host or cells: K-562 and MCF-7 cells (nuclear extracts)
T2 sequence (P42229 1-794): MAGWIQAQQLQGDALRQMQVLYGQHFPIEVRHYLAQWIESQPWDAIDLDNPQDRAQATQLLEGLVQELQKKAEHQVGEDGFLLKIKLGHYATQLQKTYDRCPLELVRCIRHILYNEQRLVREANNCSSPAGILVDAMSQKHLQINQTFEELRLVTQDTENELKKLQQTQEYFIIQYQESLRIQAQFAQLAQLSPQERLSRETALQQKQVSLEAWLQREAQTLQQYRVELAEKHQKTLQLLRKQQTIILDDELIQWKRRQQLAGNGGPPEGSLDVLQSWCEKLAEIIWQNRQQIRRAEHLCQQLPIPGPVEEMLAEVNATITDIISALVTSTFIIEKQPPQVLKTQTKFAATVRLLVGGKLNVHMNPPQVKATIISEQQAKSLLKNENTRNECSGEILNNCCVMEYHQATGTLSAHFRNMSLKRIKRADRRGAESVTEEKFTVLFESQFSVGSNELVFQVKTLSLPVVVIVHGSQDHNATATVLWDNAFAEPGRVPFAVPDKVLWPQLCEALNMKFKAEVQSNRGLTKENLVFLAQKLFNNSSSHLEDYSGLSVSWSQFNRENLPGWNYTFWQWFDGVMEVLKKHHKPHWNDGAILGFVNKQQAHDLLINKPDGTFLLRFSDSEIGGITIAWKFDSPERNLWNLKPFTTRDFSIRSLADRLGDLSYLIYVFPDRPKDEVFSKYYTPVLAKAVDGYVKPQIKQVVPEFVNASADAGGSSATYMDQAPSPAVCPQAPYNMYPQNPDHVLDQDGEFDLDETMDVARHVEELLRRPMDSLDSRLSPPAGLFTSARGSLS
The data set is described as follows: TransAM STAT5a activation assay on nuclear extracts of treated cells. Type of data set: cell-based. As to conditions: 24 h, read-out: Inhibition IC50 (µM) STAT5a. On the procedure:
as §3, §4

Data set [6] can be described thus: in vitro. The conditions noted are these: human.
Where [7] appears, read: Homo sapiens, K562, read-out: (IC50 μM)±SD K-562.
Where [8] appears, read: Homo sapiens, MCF7, read-out: (IC50 μM)±SD MCF-7.

Each structure is given as a SMILES string. Where two headings read alike, the source gives them in different places.

In the case of `COc1ccc(/C=C/C(=O)c2ccc(NC(=O)CSc3nc(-c4ccc(Cl)cc4)cc(-c4ccc([N+](=O)[O-])cc4)n3)cc2)cc1OC` [Compound 9n, (ZE)-2-[4-(4-Chlorophenyl)-6-(4-nitrophenyl)pyrimidin-2-ylthio]-N-{4-[3-(3,4-dimethoxyphenyl)acryloyl]phenyl}acetamide], the melting point was 147 to 149 °C. Besides, the IC50 in data set [1] (setting [7]) stood at 1.05 ± 0.02 µM. Also, the 50% inhibitory concentration (IC50) in data set [2] (setting [8]) was found to be 17.4 ± 0.75 µM. Also, in data set [3] (Homo sapiens), the IC50 stood at 2.1 ± 0.06 µM. Besides, in data set [4] (K562 cells), the IC50 is 113 ± 3.22 µM. In addition, the IC50 in data set [5] (K562 cells) is 50.7 ± 1.26 µM. This compound also yielded an IC50 in data set [6] of 29.2 to 40.1 µM.
Take `COc1ccc(-c2cc(-c3ccc(C)cc3)nc(SCC(=O)Nc3ccc(C(=O)/C=C/c4cc(OC)c(OC)c(OC)c4)cc3)n2)cc1` [Compound 9c, (ZE)-2-[4-(4-Methoxyphenyl)-6-p-tolylpyrimidin-2-ylthio]-N-{4-[3-(3,4,5-trimethoxyphenyl)acryloyl]phenyl}acetamide]: the melting point lay in the range of 195 to 197 °C. Besides, the IC50 in data set [1] (setting [7]) was 11.42 ± 0.04 µM. In addition, the IC50 in data set [2] (setting [8]) was 4.25 ± 0.13 µM. Also, the IC50 in data set [3] (Homo sapiens) was found to be 8.7 ± 0.28 µM.
`COc1ccc(-c2cc(-c3ccc(OCCCl)cc3)nc(SCC(=O)Nc3ccc(C(=O)/C=C/c4cc(OC)c(OC)c(OC)c4)cc3)n2)cc1` [Compound 9i, (ZE)-2-{4-[4-(2-Chloroethoxy)phenyl]-6-(4-methoxyphenyl)pyrimidin-2-ylthio}-N-{4-[3-(3,4,5-trimethoxyphenyl)acryloyl]phenyl}acetamide]: the melting point was 116 to 118 °C. The IC50 in data set [1] (setting [7]) is 9.71 ± 0.41 µM. For the same compound, the IC50 in data set [2] (setting [8]) stood at 11.5 ± 0.81 µM. Also, in data set [3] (Homo sapiens), the IC50 amounted to 11.5 ± 0.23 µM.
The corresponding values for `COc1ccc(-c2cc(-c3ccc(C)cc3)nc(SCC(=O)Nc3ccc(C(=O)/C=C/c4ccc(OC)c(OC)c4)cc3)n2)cc1` [Compound 9b, (ZE)-N-{4-[3-(3,4-Dimethoxyphenyl)acryloyl]phenyl}-2-[4-(4-methoxyphenyl)-6-p-tolylpyrimidin-2-ylthio]acetamide] are 165 to 167 °C, 3.62 ± 0.08 µM, 22.4 ± 1.57 µM and 16.4 ± 0.76 µM.
As for `C1=C/COCc2cc(ccc2OCCN2CCCC2)Nc2nccc(n2)-c2cccc(c2)COC/1` [Pacritinib, reference compound], the IC50 in data set [4] (K562 cells) is 65.5 ± 2.55 µM; in data set [4] (MCF7 cells), 79.5 ± 2.17 µM; in data set [5] (K562 cells) it was 69.8 ± 1.82 µM; in data set [5] (MCF7 cells) it was 54.4 ± 1.09 µM.
In the case of `COc1ccc(-c2cc(-c3ccc(OCCCl)cc3)nc(SCC(=O)Nc3ccc(C(=O)/C=C/c4ccc(OC)c(OC)c4)cc3)n2)cc1` [Compound 9h, (ZE)-2-{4-[4-(2-Chloroethoxy)phenyl]-6-(4-methoxyphenyl)pyrimidin-2-ylthio}-N-{4-[3-(3,4-dimethoxyphenyl)acryloyl]phenyl}acetamide], the melting point was in the range of 135 to 137 °C. In addition, the IC50 in data set [1] (setting [7]) turned out to be 7.07 ± 0.31 µM. The IC50 in data set [2] (setting [8]) stood at 7.7 ± 0.32 µM. Also, in data set [3] (Homo sapiens), the IC50 amounted to 18.8 ± 0.88 µM.
For `COc1ccc(/C=C/C(=O)c2ccc(NC(=O)CSc3nc(-c4ccc(OC)cc4)cc(-c4ccc(OCCCl)cc4)n3)cc2)cc1` [Compound 9g, (ZE)-2-{4-[4-(2-Chloroethoxy)phenyl]-6-(4-methoxyphenyl)pyrimidin-2-ylthio}-N-{4-[3-(4-methoxyphenyl)acryloyl]phenyl}acetamide], in that order: 280 to 282 °C, 3.17 ± 0.11 µM, 10.4 ± 0.64 µM and 10.6 ± 0.47 µM.
The corresponding values for `COc1ccc(-c2cc(-c3ccc([N+](=O)[O-])cc3)nc(SCC(=O)Nc3ccc(C(=O)/C=C/c4ccc(OC)c(OC)c4)cc3)n2)cc1` [Compound 9e, (ZE)-N-{4-[3-(3,4-Dimethoxyphenyl)acryloyl]phenyl}-2-[4-(4-methoxyphenyl)-6-(4-nitrophenyl)pyrimidin-2-ylthio]-acetamide] are 225 to 227 °C, 7.05 ± 0.28 µM, 18.7 ± 0.92 µM and 7.31 ± 0.36 µM.
For `COc1ccc(/C=C/C(=O)c2ccc(NC(=O)CSc3nc(-c4ccc(Cl)cc4)cc(-c4ccc(OCCCl)cc4)n3)cc2)cc1` [Compound 9p], in that order: 136 to 138 °C, 1.74 ± 0.04 µM, 11.6 ± 0.49 µM and 11.6 ± 0.63 µM.
The compound `COc1ccc(/C=C/C(=O)c2ccc(NC(=O)CSc3nc(-c4ccc(Cl)cc4)cc(-c4ccc(OCCCl)cc4)n3)cc2)cc1OC` [Compound 9q] displayed a melting point of 210 to 212 °C. The IC50 in data set [1] (setting [7]) amounted to 5.77 ± 0.16 µM. For the same compound, in data set [2] (setting [8]), the IC50 came to 6.81 ± 0.25 µM. For the same compound, the IC50 in data set [3] (Homo sapiens) came to 6.06 ± 0.29 µM.
For the compound `N.N.[Cl][Pt][Cl]` [Cisplatin, reference compound], the IC50 in data set [1] (read-out: (IC50 μM)±SD K-562) was found to be 2.31 ± 0.09 µM; in data set [2] (read-out: (IC50 μM)±SD MCF-7), 6.62 ± 0.29 µM; in data set [3] it was 1.12 ± 0.06 µM.
In the case of `COc1cc(/C=C/C(=O)c2ccc(NC(=O)CSc3nc(-c4ccc(Cl)cc4)cc(-c4ccc([N+](=O)[O-])cc4)n3)cc2)cc(OC)c1OC` [Compound 9o, (ZE)-2-[4-(4-Chlorophenyl)-6-(4-nitrophenyl)pyrimidin-2-ylthio]-N-{4-[3-(3,4,5-trimethoxyphenyl)acryloyl]phenyl}acetamide], the melting point was in the range of 268 to 270 °C. Also, in data set [1] (setting [7]), the IC50 stood at 12.3 ± 0.72 µM. Further, the IC50 in data set [2] (setting [8]) came out at 3.62 ± 0.084 µM. Moreover, the IC50 in data set [3] (Homo sapiens) came out at 3.62 ± 0.08 µM.
In the case of `COc1ccc(/C=C/C(=O)c2ccc(NC(=O)CSc3nc(-c4ccc(Cl)cc4)cc(-c4ccc([N+](=O)[O-])cc4)n3)cc2)cc1` [Compound 9m, (ZE)-2-[4-(4-Chlorophenyl)-6-(4-nitrophenyl)pyrimidin-2-ylthio]-N-{4-[3-(4-methoxyphenyl)acryloyl]phenyl}acetamide], the melting point lay within 190 to 192 °C. In addition, the IC50 in data set [1] (setting [7]) worked out at 3.86 ± 0.14 µM. The half-maximal inhibitory concentration (IC50) in data set [2] (setting [8]) came out at 3.9 ± 0.09 µM. For the same compound, the IC50 in data set [3] (Homo sapiens) came to 7.9 ± 0.22 µM.
Consider `C#Cc1cccc(Nc2ncnc3cc(OCCOC)c(OCCOC)cc23)c1` [Erlotinib, reference compound], for which the IC50 in data set [1] (setting [7]) was 9.85 ± 0.51 µM; in data set [2] (setting [8]) it was 10.6 ± 0.58 µM; in data set [3] (Homo sapiens), 9.2 ± 0.41 µM.
For `COc1ccc(/C=C/C(=O)c2ccc(NC(=O)CSc3nc(-c4ccc(C)cc4)cc(-c4ccc(Cl)cc4)n3)cc2)cc1` [Compound 9j, (ZE)-2-[4-(4-Chlorophenyl)-6-p-tolylpyrimidin-2-ylthio]-N-{4-[3-(4-methoxyphenyl)acryloyl]phenyl}acetamide], the melting point fell in the range of 242 to 244 °C. The IC50 in data set [1] (setting [7]) was found to be 4.26 ± 0.06 µM. Besides, the IC50 in data set [2] (setting [8]) amounted to 6.26 ± 0.24 µM. For the same compound, in data set [3] (Homo sapiens), the concentration for half-maximal inhibition (IC50) was determined as 6.26 ± 0.34 µM.
`COc1ccc(/C=C/C(=O)c2ccc(NC(=O)CSc3nc(-c4ccc(C)cc4)cc(-c4ccc(Cl)cc4)n3)cc2)cc1OC` [Compound 9k, (ZE)-2-[4-(4-Chlorophenyl)-6-p-tolylpyrimidin-2-ylthio]-N-{4-[3-(3,4-dimethoxyphenyl)acryloyl]phenyl}acetamide] had a melting point of 144 to 146 °C. Moreover, in data set [1] (setting [7]), the IC50 was 9.95 ± 0.29 µM. Moreover, in data set [2] (setting [8]), the IC50 came out at 28.7 ± 1.39 µM. Moreover, the IC50 in data set [3] (Homo sapiens) was 5.61 ± 0.18 µM.
The corresponding values for `COc1cc(/C=C/C(=O)c2ccc(NC(=O)CSc3nc(-c4ccc(C)cc4)cc(-c4ccc(Cl)cc4)n3)cc2)cc(OC)c1OC` [Compound 9l, (ZE)-2-[4-(4-Chlorophenyl)-6-p-tolylpyrimidin-2-ylthio]-N-{4-[3-(3,4,5-trimethoxyphenyl)acryloyl]phenyl}acetamide] are 234 to 236 °C, 42.6 ± 1.99 µM, 13.5 ± 0.62 µM and 2.37 ± 0.07 µM.
